In paper PMC10892041, “Vanadium Complexes with Thioanilide Derivatives of Amino Acids: Inhibition of Human Phosphatases and Specificity in Various Cell Models of Metabolic Disturbances” (Pharmaceuticals, 2024):

Columns and labels:
PTP1B = target: T1, PTP1B (Homo sapiens, UniProt P18031); assay: Inhibition of human recombinant tyrosine phosphatase PTP1B (DiFMUP fluorescence); format: biochemical; settings: for Inhibition of PTP1B, percentage of inhibition of the control: 1 µM, control solvent only, SD did not exceed 6%
T1 construct: purchased Sigma-Aldrich
T1 sequence (P18031 1-435): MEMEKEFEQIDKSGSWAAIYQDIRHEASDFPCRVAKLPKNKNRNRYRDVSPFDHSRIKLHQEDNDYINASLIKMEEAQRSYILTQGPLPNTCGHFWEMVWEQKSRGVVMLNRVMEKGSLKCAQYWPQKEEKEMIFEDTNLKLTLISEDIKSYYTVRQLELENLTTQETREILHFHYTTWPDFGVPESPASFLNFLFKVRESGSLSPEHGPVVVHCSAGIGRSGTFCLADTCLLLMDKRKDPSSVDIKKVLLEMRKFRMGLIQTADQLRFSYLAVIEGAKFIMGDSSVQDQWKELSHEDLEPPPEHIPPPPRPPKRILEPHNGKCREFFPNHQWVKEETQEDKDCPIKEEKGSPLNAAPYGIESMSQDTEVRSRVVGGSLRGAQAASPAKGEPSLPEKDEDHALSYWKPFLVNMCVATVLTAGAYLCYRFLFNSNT
Experimental: (§1) To determine the ability of the tested compounds for inhibition tyrosine phosphatases, human recombinant proteins were used (Sigma-Aldrich). The reactions were performed in black opaque 384-well microplates (PerkinElmer, Waltham, MA, USA). An equal volume of phosphatase solution in a reaction buffer (25 mM of 3-(N-morpholino)propanesulfonic acid (MOPS), 50 mM NaCl, 1 mM dithiothreitol (DTT), and 0.05% Tween-20 (pH 7.0)) was added to the solution of the tested compound on microplate. These solutions were dispensed using an automated injector. The following final concentrations of the tested phosphatases were used: PTP1B 50 ng/mL, SHP1 400 ng/mL, SHP2 50 ng/mL, LAR 5 ng/mL, and PTPRA 100 ng/mL. After 10 min, a solution of phosphate 6,8-difluoro-4-methyl (DiFMUP; Thermo Fisher Scientific) was added until its final concentration was 0.1 mM. Samples were incubated for 20 miN at 23 °C, and then the measurements of fluorescence intensity (excitation 355 and emission […]) were performed on a multifunctional plate reader POLARstar Omega (BMG Labtech, Ortenberg, Germany). Assays were performed in triplicate. For the screening assays, the final concentration of the tested compounds was 1 µM. The results were expressed as percent inhibition of untreated control (enzyme with vehicle only) for the screening tests. […] IC50 were calculated using GraphPad Prism version 6.0 software (GraphPad Software, Boston, MA, USA).

myocytes C2C12 = test system: myocytes C2C12; set-up: method as in doi:10.1016/j.poly.2020.114589; settings: 50 µM; previously published by the authors; cited from earlier work
SHP1 = target: T2, SHP1 (Homo sapiens, UniProt P29350); assay: Inhibition of human recombinant tyrosine phosphatase SHP1 (DiFMUP fluorescence); format: biochemical; settings: for Inhibition of SHP1, percentage of inhibition of the control: 1 µM, control solvent only, SD did not exceed 6%
T2 construct: purchased Sigma-Aldrich
Experimental: as §1

SHP2 = target: T3, SHP2 (Homo sapiens, UniProt Q06124); assay: Inhibition of human recombinant tyrosine phosphatase SHP2 (DiFMUP fluorescence); format: biochemical; settings: for Inhibition of SHP2, percentage of inhibition of the control: 1 µM, control solvent only, SD did not exceed 6%
T3 construct: purchased Sigma-Aldrich
T3 sequence (Q06124 1-593): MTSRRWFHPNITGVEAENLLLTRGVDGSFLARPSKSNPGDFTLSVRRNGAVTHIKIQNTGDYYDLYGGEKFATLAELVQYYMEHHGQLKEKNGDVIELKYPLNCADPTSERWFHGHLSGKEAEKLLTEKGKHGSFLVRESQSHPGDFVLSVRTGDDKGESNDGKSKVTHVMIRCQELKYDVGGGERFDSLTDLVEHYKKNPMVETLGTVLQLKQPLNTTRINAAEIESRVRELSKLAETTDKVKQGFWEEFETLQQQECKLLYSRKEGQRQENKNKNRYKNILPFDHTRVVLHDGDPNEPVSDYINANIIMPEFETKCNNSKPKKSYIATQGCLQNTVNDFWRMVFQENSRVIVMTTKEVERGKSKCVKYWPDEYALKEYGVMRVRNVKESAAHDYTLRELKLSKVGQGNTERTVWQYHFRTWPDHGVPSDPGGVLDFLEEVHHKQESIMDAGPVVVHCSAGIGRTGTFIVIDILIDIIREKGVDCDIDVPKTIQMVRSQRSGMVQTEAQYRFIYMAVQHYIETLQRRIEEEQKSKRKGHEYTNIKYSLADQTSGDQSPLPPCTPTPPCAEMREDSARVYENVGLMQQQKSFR
Experimental: as §1

LAR = target: T4, LAR (Homo sapiens, UniProt P10586); assay: Inhibition of human recombinant tyrosine phosphatase LAR (DiFMUP fluorescence); format: biochemical; settings: for Inhibition of LAR, percentage of inhibition of the control: 1 µM, control solvent only, SD did not exceed 6%
T4 sequence (P10586 1352-1607 limits assumed): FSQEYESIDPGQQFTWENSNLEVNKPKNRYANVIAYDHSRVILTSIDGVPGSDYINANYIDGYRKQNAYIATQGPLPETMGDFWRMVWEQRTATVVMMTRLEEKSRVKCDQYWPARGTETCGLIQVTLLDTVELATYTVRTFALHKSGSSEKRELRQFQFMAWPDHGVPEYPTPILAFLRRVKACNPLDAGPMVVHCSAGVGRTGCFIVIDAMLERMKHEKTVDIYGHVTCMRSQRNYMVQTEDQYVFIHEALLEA
Experimental: as §1

hepatocytes HepG2 [1] = assay: Transport of [14C]-deoxy-D-glucose into insulin-resistant hepatocytes (TNF or oleic acid); format: cell-based, human; settings: 10 µM; p ≤ 0.05
Experimental: After 24 h incubation, the tested complexes were added. After 2 h incubation at 37 °C in 5% CO2, the medium was changed to low-glucose medium (1000 mg/L), and the tested complexes were added again, with further incubation for 4 h being conducted.
For cells proceeded as above, 2-deoxy-D-[U-14C]-glucose (250–350 mCi/mmol, NEC720A, PerkinElmer) solution in KRB with a total activity of 0.03 mCi was added to each well. […] Non-specific radioactivity was subtracted from each result (cpm). Two independent experiments with triplicates were conducted.
Next, the compounds in fresh medium were added, further incubation was carried out for 24 h, and the scintillation proximity assay for the uptake of radiolabeled 2-deoxy-D-[U-14C]-glucose was conducted as described in the section above.

CDC25A = target: T5, CDC25A (Homo sapiens, UniProt P30304); assay: Inhibition of human recombinant non-tyrosine phosphatase CDC25A (3-O-methylfluorescein phosphate); format: biochemical
T5 construct: purchased Sigma-Aldrich
T5 sequence (P30304 1-524): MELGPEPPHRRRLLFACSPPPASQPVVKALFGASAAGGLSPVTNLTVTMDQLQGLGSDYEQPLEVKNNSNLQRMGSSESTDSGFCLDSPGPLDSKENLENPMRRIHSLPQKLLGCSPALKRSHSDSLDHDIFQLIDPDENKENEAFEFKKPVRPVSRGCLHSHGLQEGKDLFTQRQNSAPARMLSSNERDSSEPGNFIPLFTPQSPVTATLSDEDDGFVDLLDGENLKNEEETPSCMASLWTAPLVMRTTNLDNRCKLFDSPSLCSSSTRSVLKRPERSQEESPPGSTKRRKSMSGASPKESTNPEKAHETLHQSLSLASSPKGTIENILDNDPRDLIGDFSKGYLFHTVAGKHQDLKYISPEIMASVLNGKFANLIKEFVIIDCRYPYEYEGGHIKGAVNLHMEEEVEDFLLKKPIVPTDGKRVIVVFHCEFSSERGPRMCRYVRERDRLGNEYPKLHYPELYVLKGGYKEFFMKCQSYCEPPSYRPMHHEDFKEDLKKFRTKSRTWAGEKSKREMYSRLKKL
Experimental: (§2) For the inhibition assay of non-tyrosine phosphatases, human recombinant proteins were used (Sigma-Aldrich). The reactions were performed in black opaque 384-well microplates (PerkinElmer). To the solution of the tested complexes, an equal volume of a test solution of phosphatase was added. CDC25A were diluted in reaction buffer to the final concentration of 400 ng/mL as for tyrosine phosphatases (described in the section above), and PPA2 (final 0.5 U/mL) was diluted in 50 mM Tris-HCl, 0.05% Tween-20, and 125 µg/mL protease-free bovine serum albumin (pH 7.0). These solutions were dispensed using an automated injector. After 10 min, a solution of phosphate 6,8-difluoro-4-methyl (DiFMUP; Thermo Fisher Scientific) was added for the PPA2 sample until the final concentration 0.1 mM. For CDC25A samples, 3-O-methylfluorescein phosphate for the final concentration of 0.2 mM was added. Samples were incubated for 180 min at 23 °C, and then the measurements of fluorescence intensity (excitation 355 and emission 560 nm) were performed on a multifunctional plate reader POLARstar Omega (BMG Labtech). Assays were performed in triplicate. The results were expressed as percent of inhibition of untreated control (enzyme with vehicle solvent only).

hepatocytes HepG2 [2] = settings: 50 µM
Experimental: Experiments on the inhibition of hepatic gluconeogenesis in HepG2 hepatocytes by the vanadium complexes were carried out based on a previous description with some modifications [143]. Hepatocytes HepG2 in culture medium (as indicated above) were seeded on a half-area 96 microplate at the amount of 50,000 per well. After 16–24 h, cells were washed with PBS three times and one time with experimental medium (DMEM without glucose with 0.1% BSA, 2 µM L-glutamine, 15 mM HEPES, 1 mM sodium pyruvate, 10 mM calcium lactate, 100 IU/mL penicillin, and 100 mg/mL streptomycin). Cells were incubated in this medium for 3 h at 37 °C in 5% CO2, and the next medium was changed to the experimental medium with additional gluconeogenesis inductors: 10 µM dexamethasone, 100 µM 8-bromoadenosine 3′,5′-cyclic monophosphate sodium salt (8-Br-cAMP), and 500 µM 3-isobutyl-1-methylxanthine (IBMX). After adding the test compounds, the cells were incubated for 3 h at 37 °C in a 5% CO2 microplate, and then the supernatant was collected for glucose assay (as described in Section 4.2.6). Glucose synthesis was calculated as glucose concentration differences between experimental medium without cells and medium with cells after incubation with the tested compound. The final results were expressed as the percent of inhibition of glucose synthesis by cells incubated with solvent only.

PP2A = PP2A (Homo sapiens, UniProt P67775); assay: Inhibition of human recombinant non-tyrosine phosphatase PP2A (DiFMUP); format: biochemical
Experimental: as §2

[3] = Viability of myocytes C2C12 after 24 h incubation (resazurin-based reagent); settings: mouse, C2C12 myocytes
Experimental: Simultaneously with glucose consumption tests, the viability of myocytes C2C12 was examined due to their prolonged 24 h incubation with vanadium complexes.
Prolonged incubation of the cells with vanadium complexes, as was the case during the study of the effect on glucose consumption, more closely corresponds to the actual conditions of clinical use, also allowing for the identification of possible cytotoxic effects. […] A Resazurin-based reagent is reduced proportionally to the metabolic activity of cells as a result of the transference of electrons from NADPH+H^+, the amount of which strictly depends on glucose metabolism.

T2 sequence (P29350 whole entry): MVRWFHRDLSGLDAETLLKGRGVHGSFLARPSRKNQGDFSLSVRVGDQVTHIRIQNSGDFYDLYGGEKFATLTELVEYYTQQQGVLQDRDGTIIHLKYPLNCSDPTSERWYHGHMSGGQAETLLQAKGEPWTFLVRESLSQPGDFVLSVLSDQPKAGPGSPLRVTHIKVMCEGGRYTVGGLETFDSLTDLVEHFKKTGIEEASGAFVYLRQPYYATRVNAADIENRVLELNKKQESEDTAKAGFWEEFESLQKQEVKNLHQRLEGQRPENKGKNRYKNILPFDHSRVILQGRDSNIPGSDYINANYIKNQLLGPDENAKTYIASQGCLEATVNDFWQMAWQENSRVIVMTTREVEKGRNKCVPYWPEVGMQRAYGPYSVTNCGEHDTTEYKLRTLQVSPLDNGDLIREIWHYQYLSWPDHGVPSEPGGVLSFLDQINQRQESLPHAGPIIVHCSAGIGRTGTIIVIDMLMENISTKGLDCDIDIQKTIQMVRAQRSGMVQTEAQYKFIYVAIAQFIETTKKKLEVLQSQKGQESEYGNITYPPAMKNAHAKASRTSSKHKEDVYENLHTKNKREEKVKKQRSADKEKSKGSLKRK
PP2A, sequence (P67775 whole entry): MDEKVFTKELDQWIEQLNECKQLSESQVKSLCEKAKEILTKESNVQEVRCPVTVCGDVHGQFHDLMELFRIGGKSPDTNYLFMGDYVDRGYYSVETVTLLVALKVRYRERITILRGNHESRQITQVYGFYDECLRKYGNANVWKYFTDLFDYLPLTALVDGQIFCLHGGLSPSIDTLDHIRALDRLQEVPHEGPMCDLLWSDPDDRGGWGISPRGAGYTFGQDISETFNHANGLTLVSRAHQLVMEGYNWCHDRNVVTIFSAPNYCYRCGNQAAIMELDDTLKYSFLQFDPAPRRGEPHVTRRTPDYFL

Row | Inhibition of PTP1B, percentage of inhibition of the control (PTP1B) | Inhibition of SHP1, percentage of inhibition of the control (SHP1) | Inhibition of SHP2, percentage of inhibition of the control (SHP2) | Inhibition of LAR, percentage of inhibition of the control (LAR) | Log IC50 ± SD PTP1B (PTP1B; logarithm of IC50) | IC50 (PTP1B; read-out: IC50 PTP1B) | IC50 (SHP1) | Log IC50 ± SD SHP1 (SHP1; logarithm of IC50) | Inhibition of CDC25A, percentage inhibition of control ± SD (CDC25A; 1 µM) | Inhibition of CDC25A, percentage inhibition of control ± SD (CDC25A; 10 µM) | IC50 (SHP2) | Inhibition of glucose synthesis (gluconeogenesis) in hepatocytes (hepatocytes HepG2 [2]) | IC50 (LAR) | Inhibition of PP2A, percentage inhibition of control ± SD (PP2A; 1 µM) | Inhibition of PP2A, percentage inhibition of control ± SD (PP2A; 10 µM) | SMILES | Transport of [14C]-deoxy-D-glucose into C2C12 myocytes, % of the control (myocytes C2C12) | Reversal of decreased [14C]-deoxy-D-glucose transport, insulin resistance induced by oleic acid (hepatocytes HepG2 [1]) | Reversal of decreased [14C]-deoxy-D-glucose transport, insulin resistance induced by TNF (hepatocytes HepG2 [1]) | viability at 24 h, 50 µM [3]
1 | 42% | 70% | 74% | 39% |  |  |  |  |  |  |  |  |  |  |  | O=C(NN=Cc1cc(Br)ccc1[O][V]1[O]C(c2cc3ccccc3cc2O)=NN=Cc2cc(Br)ccc2[O]1)c1cc2ccccc2cc1O [VC067, [V(L12)(HL12)]] | 199 ± 3 % of control | reversed the decrease |  | 
2 | 40% | 70% | 74% | 33% | −5.69 ± 0.02 | 2030 nM | 517 nM | −6.29 ± 0.02 | 54 ± 3% | 62 ± 2% | 235 nM | 79 ± 18% | 619 nM | 26 ± 12% | 55 ± 15% | O=C(NN=Cc1cc(Br)ccc1[O-])c1ccc([N+](=O)[O-])cc1.O=[N+]([O-])c1ccc(C([O-])=NN=Cc2cc(Br)ccc2[O-])cc1.[V+3] [VC068, [V(L13)(HL13)]] | 218 ± 10 % of control |  | reversed the decrease | 
3 |  |  |  |  |  |  |  |  |  |  |  |  |  |  |  | CN(CCOc1ccc(CC2SC(=O)NC2=O)cc1)c1ccccn1 (stereo not drawn) [rosiglitazone, reference compound] |  |  |  | 120 ± 7%
